Molecular target: T1, Toll-like receptor 7 (Homo sapiens, UniProt Q9NYK1)
T1 sequence (Q9NYK1 whole entry): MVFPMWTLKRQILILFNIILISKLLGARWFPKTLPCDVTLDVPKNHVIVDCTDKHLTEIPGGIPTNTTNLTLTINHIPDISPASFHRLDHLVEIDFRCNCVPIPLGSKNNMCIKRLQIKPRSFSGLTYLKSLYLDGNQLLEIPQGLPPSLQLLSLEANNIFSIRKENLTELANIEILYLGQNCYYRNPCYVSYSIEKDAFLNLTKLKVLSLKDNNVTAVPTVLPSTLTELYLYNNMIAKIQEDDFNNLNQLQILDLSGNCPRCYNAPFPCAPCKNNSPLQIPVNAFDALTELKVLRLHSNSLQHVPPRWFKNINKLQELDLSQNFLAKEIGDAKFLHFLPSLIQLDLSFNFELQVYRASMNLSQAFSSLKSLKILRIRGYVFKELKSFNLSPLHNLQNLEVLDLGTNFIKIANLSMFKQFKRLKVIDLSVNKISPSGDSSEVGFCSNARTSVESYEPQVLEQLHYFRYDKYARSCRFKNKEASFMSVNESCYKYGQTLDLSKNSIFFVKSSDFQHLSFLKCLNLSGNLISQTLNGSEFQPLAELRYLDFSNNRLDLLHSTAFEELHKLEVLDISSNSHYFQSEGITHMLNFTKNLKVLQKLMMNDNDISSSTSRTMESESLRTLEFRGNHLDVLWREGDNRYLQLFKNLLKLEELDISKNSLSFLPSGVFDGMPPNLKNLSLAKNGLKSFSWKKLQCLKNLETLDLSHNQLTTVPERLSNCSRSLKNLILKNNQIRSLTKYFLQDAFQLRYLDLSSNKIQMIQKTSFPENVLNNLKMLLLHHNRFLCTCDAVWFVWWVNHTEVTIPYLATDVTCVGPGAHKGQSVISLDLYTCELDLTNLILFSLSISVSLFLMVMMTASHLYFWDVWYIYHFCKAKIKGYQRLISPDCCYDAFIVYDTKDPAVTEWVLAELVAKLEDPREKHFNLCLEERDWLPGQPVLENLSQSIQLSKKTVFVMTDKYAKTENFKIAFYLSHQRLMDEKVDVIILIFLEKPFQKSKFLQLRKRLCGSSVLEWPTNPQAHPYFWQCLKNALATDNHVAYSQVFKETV
Test: HEK-Blue™ TLR7 cells were added to each well of a 384-well tissue-culture plate (15,000 cells per well) and incubated 16-18 h at 37° C., 5% CO2. Compounds (100 nl) were dispensed into wells containing the HEK-Blue™ TLR cells and the treated cells were incubated at 37° C., 5% CO2. After 18 h treatment ten microliters of freshly-prepared Quanti-Blue™ reagent (Invivogen) was added to each well, incubated for 30 min (37° C., 5% CO2) and SEAP levels measured using an Envision plate reader (OD=620 nm).

Structure (SMILES)	EC50
CCCCOc1nc(N)c2nc(O)n(Cc3ccc(CNC4CCCC4)nc3)c2n1	2.9 nM
CCCCOc1nc(N)c2nc(O)n(Cc3ccc(CNCc4ccccc4)cn3)c2n1	22 nM
CCCCOc1nc(N)c2nc(O)n(Cc3ccc(CNCc4ccccc4)nc3)c2n1	110 nM

Next, values leading:

EC50	Structure (SMILES)
3.1 nM	CCCCOc1nc(N)c2nc(O)n(Cc3ccc(CN4CCC(N)CC4)nc3)c2n1
4.9 nM	CCCCOc1nc(N)c2nc(O)n(Cc3ccc(CN4CCC(CN)CC4)nc3)c2n1
11 nM	CCCCCCNCc1ccc(Cn2c(O)nc3c(N)nc(OCCCC)nc32)cn1
